{"source": "patent US5254533A", "about": "“Elfamycin” (Rhone-Poulenc Rorer S.A., priority 1990, dated 1993)", "key": {"[1]": {"test": "Use as a growth factor in weaned piglets (Example 5)", "format": "in vivo, weaned Large-White Belgian Landrace crossed piglets", "details": "for Weight gain / Consumption / Intermediate Weight / Initial weight / Index of consumption: 40 ppm in feed; for Initial weight: start of period 14-28 days; for Index of consumption: consumption/weight gain ratio"}, "[2]": {"test": "Use as a growth factor in piglets (Example 6)", "format": "in vivo, weaned Large-White Belgian Landrace crossed piglets", "details": "40 ppm in feed; for Final weight: control 24.7", "text": "130 weaned Large-White Belgian Landrace crossed piglets were used. The experiment began 2 weeks after weaning of the animals, i.e. at a mean age of 42 days.\nThe animals received the experimental feed ad libitum in the form of granules 2.5 mm in diameter.\nThe animals were weighed at the beginning, middle and end of the experiment. The consumptions were noted every week.\nTables 7, 8 and 9 respectively show the percentage composition and the characteristics of the diets, the percentage composition of the CMV and the percentage composition of the premixes.\nThe results are shown in Table 10 for the period 0-14 days, Table 11 for the period 14-28 days and Table 12 for the period 0-28 days."}, "[3]": {"details": "Table 4, 0-14 days, control 15.3"}, "[4]": {"details": "Table 5, 14-28 days, control 23.1"}, "[5]": {"details": "Table 6, 0-28 days, control 23.1"}}, "data": [{"molecule": "CC[C@H]1OC(=O)C[C@@H](O)[C@H](C)[C@@H](O[C@@H]2O[C@H](C)[C@@H](O[C@H]3C[C@@](C)(O)[C@@H](O)[C@H](C)O3)[C@H](N(C)C)[C@H]2O)[C@@H](CC=O)C[C@@H](C)C(=O)/C=C/C(C)=C/[C@@H]1CO[C@@H]1O[C@H](C)[C@@H](O)[C@@H](OC)[C@H]1OC", "note": "[tylosin, reference compound]", "values": [{"measurement": "Weight gain", "setting": "[1]; 0-14 days, control 329", "value": 351, "unit": "g/day"}, {"measurement": "Consumption", "setting": "[1]; 0-14 days, control 614", "value": 619, "unit": "g/day"}, {"measurement": "Weight gain", "setting": "[1]; 0-28 days, control 445", "value": 470, "unit": "g/day"}, {"measurement": "Consumption", "setting": "[1]; 0-28 days, control 822", "value": 826, "unit": "g/day"}, {"measurement": "Weight gain", "setting": "[1]; 14-28 days, control 560", "value": 588, "unit": "g/day"}, {"measurement": "Consumption", "setting": "[1]; 14-28 days, control 1031", "value": 1033, "unit": "g/day"}, {"measurement": "Intermediate Weight", "setting": "[1]; [3]", "value": 15.6, "unit": "kg"}, {"measurement": "Intermediate Weight", "setting": "[1]; [4]", "value": 23.8, "unit": "kg"}, {"measurement": "Intermediate Weight", "setting": "[1]; [5]", "value": 23.8, "unit": "kg"}, {"measurement": "Initial weight", "setting": "[1]; control 15.3", "value": 15.6, "unit": "kg"}, {"measurement": "Index of consumption", "setting": "[1]; 0-14 days, control 1.88", "value": 1.79}, {"measurement": "Index of consumption", "setting": "[1]; 0-28 days, control 1.85", "value": 1.76}, {"measurement": "Index of consumption", "setting": "[1]; 14-28 days, control 1.86", "value": 1.76}]}, {"molecule": "spiramycin embonate [reference compound]", "values": [{"measurement": "Weight gain", "setting": "[1]; 0-14 days, control 329", "value": 393, "unit": "g/day"}, {"measurement": "Consumption", "setting": "[1]; 0-14 days, control 614", "value": 668, "unit": "g/day"}, {"measurement": "Weight gain", "setting": "[1]; 0-28 days, control 445", "value": 518, "unit": "g/day"}, {"measurement": "Consumption", "setting": "[1]; 0-28 days, control 822", "value": 908, "unit": "g/day"}, {"measurement": "Weight gain", "setting": "[1]; 14-28 days, control 560", "value": 647, "unit": "g/day"}, {"measurement": "Consumption", "setting": "[1]; 14-28 days, control 1031", "value": 1147, "unit": "g/day"}, {"measurement": "Intermediate Weight", "setting": "[1]; [3]", "value": 16.3, "unit": "kg"}, {"measurement": "Intermediate Weight", "setting": "[1]; [4]", "value": 25.4, "unit": "kg"}, {"measurement": "Intermediate Weight", "setting": "[1]; [5]", "value": 25.4, "unit": "kg"}, {"measurement": "Initial weight", "setting": "[1]; control 15.3", "value": 16.3, "unit": "kg"}, {"measurement": "Index of consumption", "setting": "[1]; 0-14 days, control 1.88", "value": 1.72}, {"measurement": "Index of consumption", "setting": "[1]; 0-28 days, control 1.85", "value": 1.75}, {"measurement": "Index of consumption", "setting": "[1]; 14-28 days, control 1.86", "value": 1.79}, {"measurement": "effect on consumption (in words)", "setting": "[1]; first period 0-14 days", "value": "increase in consumption"}, {"measurement": "effect on consumption (in words)", "setting": "[1]; overall period 0-28 days", "value": "significantly increased"}, {"measurement": "effect on growth (in words)", "setting": "[1]; overall period 0-28 days, relative to basic diet", "value": "significantly increased"}, {"measurement": "effect on growth (in words)", "setting": "[1]; second period 14-28 days", "value": "significantly improved"}, {"measurement": "Index of consumption", "setting": "[2]; 0-14 days, control 1.76", "value": 1.70}, {"measurement": "Weight gain", "setting": "[2]; 0-14 days, control 368", "value": 423, "unit": "g/day"}, {"measurement": "Consumption", "setting": "[2]; 0-14 days, control 645", "value": 715, "unit": "g/day"}, {"measurement": "Index of consumption", "setting": "[2]; 0-28 days, control 1.80", "value": 1.73}, {"measurement": "Weight gain", "setting": "[2]; 0-28 days, control 474", "value": 532, "unit": "g/day"}, {"measurement": "Consumption", "setting": "[2]; 0-28 days, control 852", "value": 923, "unit": "g/day"}, {"measurement": "Index of consumption", "setting": "[2]; 14-28 days, control 1.84", "value": 1.77}, {"measurement": "Weight gain", "setting": "[2]; 14-28 days, control 579", "value": 640, "unit": "g/day"}, {"measurement": "Consumption", "setting": "[2]; 14-28 days, control 1059", "value": 1130, "unit": "g/day"}, {"measurement": "Final weight", "setting": "[2]; Table 11, 14-28 days", "value": 26.3, "unit": "kg"}, {"measurement": "Final weight", "setting": "[2]; Table 12, 0-28 days", "value": 26.3, "unit": "kg"}]}]}
